Test results published in US8614168B2, “Use of azoles for increasing the abiotic stress resistance of plants or plant parts” (Monheim, priority 2008, dated 2013).

What was measured:
[1] = test system: BRSNS: oilseed rape (Brassica napus); experiment: Dry stress test on potted plants, spray application, oilseed rape; type: in vivo; conditions: individual substance
Description: (§1) Seeds of monocotyledonous and dicotyledonous crop plants are placed in sandy loam in wood-fiber pots, covered with soil and cultivated in a greenhouse under good growth conditions. The test plants are treated in the early leaf stage (BBCH10-BBCH13, BBCH-Monografie der Biologische Bundesanstalt für Land and Forstwirtschaft, 2nd edition, 2001), i.e. 2-3 weeks after sowing according to the species. To ensure uniform water supply before commencement of stress, the potted plants were supplied with the maximum amount of water immediately beforehand by dam irrigation and transferred in plastic inserts in order to prevent subsequent, excessively rapid drying. The inventive compounds, formulated in the form of wettable powders (WP), are then sprayed onto the green parts of the plants as an aqueous suspension at an equivalent water application rate of 600 l/ha with addition of 0.2% wetting agent (agrotin). Substance application is followed immediately by stress treatment of the plants (cold or dry stress). Dry stress is induced by slow drying under the following conditions: • “day”: 14 hours with illumination at 26° C. • “night”: 10 hours without illumination at 18° C. The cold stress phase is ended after exactly 14 days. The duration of the dry stress phase is guided mainly by the state of the untreated, stressed control plants and thus varies from crop to crop. It is ended (by re-irrigating) as soon as irreversible damage is observed on the untreated, stressed control plants. In the case of dicotyledonous crops, for example oilseed rape and soya, the duration of the dry stress phase is between 4 and 6 days, in the case of monocotyledonous crops, for example wheat, barley or corn, between 6 and 10 days. The end of the stress phase is followed by a 7-day recovery phase, during which the plants are once again kept under good growth conditions in a greenhouse. In order to rule out any influence of the effects observed by any fungicidal action of the test compounds, it is additionally ensured that the tests proceed without fungal infection and without infection pressure. After the recovery phase has ended, the intensities of damage are rated visually compared to untreated, unstressed controls of the same age (in the case of dry stress) or the same growth stage (in the case of cold stress). The intensity of damage is first assessed as a percentage (100%=plants have died, 0%=like control plants). These values are then used to calculate the efficacy of the test compounds (=percentage reduction in the intensity of damage as a result of substance application) by the following formula: [formula] EF: efficacy (%) DVus: damage value of the untreated, stressed control DVts: damage value of the plants treated with test compound The table below lists mean values in each case from three results of the same test.

[2] = test system: HORVS barley (Hordeum vulgare); experiment: Dry stress test on potted plants, spray application, barley; type: in vivo; conditions: 100 g/ha, individual substance
Description: Seeds of monocotyledonous and dicotyledonous crop plants are placed in sandy loam in wood-fiber pots, covered with soil and cultivated in a greenhouse under good growth conditions. The test plants are treated in the early leaf stage (BBCH10-BBCH13, BBCH-Monografie der Biologische Bundesanstalt für Land and Forstwirtschaft, 2nd edition, 2001), i.e. 2-3 weeks after sowing according to the species. To ensure uniform water supply before commencement of stress, the potted plants were supplied with the maximum amount of water immediately beforehand by dam irrigation and transferred in plastic inserts in order to prevent subsequent, excessively rapid drying. The inventive compounds, formulated in the form of wettable powders (WP), are then sprayed onto the green parts of the plants as an aqueous suspension at an equivalent water application rate of 600 l/ha with addition of 0.2% wetting agent (agrotin). Substance application is followed immediately by stress treatment of the plants (cold or dry stress). Dry stress is induced by slow drying under the following conditions: • “day”: 14 hours with illumination at 26° C. • “night”: 10 hours without illumination at 18° C. The cold stress phase is ended after exactly 14 days. […] The intensity of damage is first assessed as a percentage (100%=plants have died, 0%=like control plants). […]

[3] = test system: ZEAMX: corn (Zea mais); experiment: Dry stress test on potted plants, spray application, corn; type: in vivo; conditions: individual substance
Description: as §1

[4] = test system: crop plants, for example oilseed rape; experiment: Stunting: mean plant height after azole application; type: in vivo; conditions: dosage 250 g/ha, comparative 11.7 cm
Description: In the case of application of the inventive azoles, this stunting occurs to a lower or non-undesirable degree: […]

[5] = test system: ABA 8′-hydroxylase; conditions: studies to date (Kitahata et al., 2005; Saito et al., 2006); cited from earlier work

| Structure (SMILES) | efficacy (percentage reduction in the intensity of damage) ([1]; 100 g/ha) | efficacy (percentage reduction in the intensity of damage) [2] | efficacy (percentage reduction in the intensity of damage) ([3]; 100 g/ha) | efficacy (percentage reduction in the intensity of damage) ([1]; 250 g/ha) | efficacy (percentage reduction in the intensity of damage) ([3]; 250 g/ha) | Mean plant height (cm) [4] | inhibiting action on abscisic acid catabolism or ABA 8′-hydroxylase [5] |
| --- | --- | --- | --- | --- | --- | --- | --- |
| Fc1ccc([C@]2(Cn3cncn3)O[C@H]2c2ccccc2Cl)cc1 (racemic) [epoxiconazole] | 35% | 17% | 11% |  |  |  |  |
| CC(C1CC1)C(O)(Cn1cncn1)c1ccc(Cl)cc1 (stereo not shown) [cyproconazole] |  |  | 40% | 42% | 37% |  |  |
| CC1(C)CCC(Cc2ccc(Cl)cc2)C1(O)Cn1cncn1 (stereo not shown) [metconazole] | 50% |  |  |  |  |  |  |
| OC(Cc1ccccc1Cl)(Cn1nc[nH]c1=S)C1(Cl)CC1 (stereo not shown) [prothioconazole] | 12% | 11% | 12% |  |  | 10.2 cm |  |
| CC(C)(C)C(O)(CCc1ccc(Cl)cc1)Cn1cncn1 (stereo not shown) [tebuconazole] | 27% |  |  | 42% | 30% | 10.2 cm | only slight inhibiting action, if any |
